Results published in patent US7005138B2, “Method of systematically delivering SSRIs” (Duramed Pharmaceuticals, Inc., priority 2001, dated 2006).

What was measured:
[1] = rabbit
Description: (§1) A study was designed to compare the pharmacokinetic profiles of oral vs. intravaginal administration of fluoxetine in white albino female New Zealand rabbits. The study compared the blood levels of fluoxetine and/or its metabolites in the rabbits after either a single oral dose or a single intravaginal dose of fluoxetine hydrochloride. Both oral (tablet) and intravaginal (transvaginal insert) administration delivered the standard human daily dose of 20 mg fluoxetine hydrochloride to each rabbit. The oral route was used to compare the bioavailability of fluoxetine by the two routes of administration.
(§2) Three rabbits received the fluoxetine tablets orally, while three rabbits received fluoxetine inserts intravaginally. The fluoxetine tablets were administered orally using an animal pilling device. The fluoxetine inserts were administered by insertion into the vaginas of the rabbits. The inserts remained in place for 2–4 hours, after which they were removed. Removal was accomplished by using an appropriate instrument to grasp the extension on the back of the insert. If an insert was expelled from an animal before removal, it was noted but not replaced. Both tablets and intravaginal inserts were administered once on Day 0.
The animals were observed twice daily for mortality and general condition. Animals in poor health were identified and further monitored. In addition, observations were made for any signs of toxic or pharmacologic effects (e.g., abnormalities in general, appearance, activity, behavior, respiration, etc.).

[2] = Rabbit study: plasma levels of fluoxetine and norfluoxetine after single oral vs. intravaginal dose
Description: as §1, §2
Blood samples were obtained for the determination of plasma concentrations of fluoxetine. Starting on Day 0, blood samples were obtained for toxicokinetic determinations from all animals pretest and at 1, 3, 8, 12, 16, 24, 36, 48, 72, 96, 120, 144, 168, 240, 360, 480, 672 and 840 hours post-dose. Pre-dose samples were collected one week prior to dosing. Approximately 1.5 mL of whole blood was obtained from the medial auricular artery of the unanesthetized rabbits, unfasted, and were preserved using ethylenediamine tetraacetic acid (EDTA). […]
The EDTA preserved rabbit plasma samples were analyzed for fluoxetine and norfluoxetine using a solid phase extraction (SPE) technique. […]
Samples were evaluated using a solid phase extraction technique using conditioned SPE cartridges, then analyzed via HPLC and mass spectroscopy. […]

[3] = rabbit, cited from earlier work
[4] = oral administration; cited from earlier work

Row | mean plasma levels of metabolite norfluoxetine, intravaginal delivery compared to oral delivery ([2]; after fluoxetine single 20 mg dose) | mean norfluoxetine levels, persistence ([2]; oral group) | SMILES | decreased food consumption ([1]; in vivo, po) | differences in clinical observations or body weights between administration methods ([1]; in vivo, po) | mortality ([1]; oral tablet and intravaginal insert groups, length of the study) | fluoxetine plasma levels after 72 hours ([2]; in vivo, po) | tolerability of repeated daily doses ([3]; in vivo) | mortality with repeated daily doses ([3]; up to 7.5 mg/kg/day) | half life [4] [h]
1 | – | – | CNCCC(Oc1ccc(C(F)(F)F)cc1)c1ccccc1 (racemic) [fluoxetine, dl-N-methyl-γ-[4-(trifluoromethyl)phenoxy]benzenepropanamine] | One animal from each treatment group | no differences | No mortality | almost undetectable | fairly well tolerated | not associated with mortality | 48 to 72
2 | much lower | present throughout most of the study | NCCC(Oc1ccc(C(F)(F)F)cc1)c1ccccc1 (stereo not shown) [norfluoxetine] | – | – | – | – | – | – | 170 to 220
